Tests used:
Bile acid receptor = target: T1, Bile acid receptor (Homo sapiens, UniProt Q96RI1); assay: Agonist activity at FXR LBD (unknown origin) using fluorescein-SRC2-2 as substrate incubated for 3 hrs by TR-FRET assay
T1 sequence (Q96RI1 whole entry): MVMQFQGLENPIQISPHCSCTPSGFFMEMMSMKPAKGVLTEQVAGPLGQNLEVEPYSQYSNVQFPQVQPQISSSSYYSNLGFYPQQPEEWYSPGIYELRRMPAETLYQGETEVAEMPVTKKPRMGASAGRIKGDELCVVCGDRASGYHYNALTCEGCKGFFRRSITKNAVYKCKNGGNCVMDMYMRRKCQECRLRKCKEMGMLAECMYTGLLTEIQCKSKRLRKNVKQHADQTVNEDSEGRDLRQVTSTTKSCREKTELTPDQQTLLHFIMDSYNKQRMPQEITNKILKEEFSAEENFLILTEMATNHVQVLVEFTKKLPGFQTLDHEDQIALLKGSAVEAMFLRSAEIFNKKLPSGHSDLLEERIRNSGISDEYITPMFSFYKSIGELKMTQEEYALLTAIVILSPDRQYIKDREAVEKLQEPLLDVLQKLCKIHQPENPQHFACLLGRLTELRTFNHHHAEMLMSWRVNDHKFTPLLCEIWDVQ

[1] = Sub-acute toxicity in ICR mouse assessed as animal death at 500 mg/kg, po qd treated for 10 days; assay type: organism-based; conditions: in vivo, 240 h, time 10 day
[2] = Sub-acute toxicity in ICR mouse assessed as abnormal behaviour at 500 mg/kg, po qd treated for 10 days; assay type: organism-based; conditions: in vivo, 240 h, time 10 day
[3] = Sub-acute toxicity in ICR mouse assessed as change in serum AST level at 500 mg/kg, po qd treated for 10 days; assay type: organism-based; conditions: in vivo, 240 h, time 10 day
[4] = Sub-acute toxicity in ICR mouse assessed as change in serum ALT level at 500 mg/kg, po qd treated for 10 days; assay type: organism-based; conditions: in vivo, 240 h, time 10 day
[5] = Sub-acute toxicity in ICR mouse assessed as change in serum ALP level at 500 mg/kg, po qd treated for 10 days; assay type: organism-based; conditions: in vivo, 240 h, time 10 day
[6] = Sub-acute toxicity in ICR mouse assessed as change in serum TBIL level at 500 mg/kg, po qd treated for 10 days; assay type: organism-based; conditions: in vivo, 240 h, time 10 day
[7] = Sub-acute toxicity in ICR mouse assessed as change in serum DBIL level at 500 mg/kg, po qd treated for 10 days; assay type: organism-based; conditions: in vivo, 240 h, time 10 day
[8] = Sub-acute toxicity in ICR mouse assessed as change in serum TG level at 500 mg/kg, po qd treated for 10 days; assay type: organism-based; conditions: in vivo, 240 h, time 10 day
[9] = Sub-acute toxicity in ICR mouse assessed as change in serum TC level at 500 mg/kg, po qd treated for 10 days; assay type: organism-based; conditions: in vivo, 240 h, time 10 day
[10] = Sub-acute toxicity in ICR mouse assessed as change in serum creatinine level at 500 mg/kg, po qd treated for 10 days; assay type: organism-based; conditions: in vivo, 240 h, time 10 day
[11] = Sub-acute toxicity in ICR mouse assessed as change in serum urea level at 500 mg/kg, po qd treated for 10 days; assay type: organism-based; conditions: in vivo, 240 h, time 10 day
[12] = Sub-acute toxicity in ICR mouse assessed as anomaly in heart at 500 mg/kg, po qd treated for 10 days; assay type: organism-based; conditions: in vivo, 240 h, time 10 day
[13] = Sub-acute toxicity in ICR mouse assessed as anomaly in liver at 500 mg/kg, po qd treated for 10 days; assay type: organism-based; conditions: in vivo, 240 h, time 10 day
[14] = Sub-acute toxicity in ICR mouse assessed as anomaly in spleen at 500 mg/kg, po qd treated for 10 days; assay type: organism-based; conditions: in vivo, 240 h, time 10 day
[15] = Sub-acute toxicity in ICR mouse assessed as anomaly in lung at 500 mg/kg, po qd treated for 10 days; assay type: organism-based; conditions: in vivo, 240 h, time 10 day
[16] = Sub-acute toxicity in ICR mouse assessed as anomaly in kidney at 500 mg/kg, po qd treated for 10 days; assay type: organism-based; conditions: in vivo, 240 h, time 10 day

EC50 (Bile acid receptor)	SMILES	other results
> 10 µM	CC#CC(CC(=O)O)c1ccc(OCc2ccc(N(CC(C)C)S(=O)(=O)c3c(Cl)cccc3Cl)cc2)cc1 (stereo not given)	–
> 10 µM	CC(C)CN(c1ccc(-c2cccc(C3(C(=O)O)CC3)c2)cc1)S(=O)(=O)c1c(Cl)cccc1Cl	–
3.5 µM	CC(C)CN(c1ccc(-c2ccc(C(=O)O)cc2)cc1)S(=O)(=O)c1c(Cl)cccc1Cl	–
8.7 µM	CC(C)CN(c1ccc(-c2ccc(OC(C)C(=O)O)c(F)c2)cc1)S(=O)(=O)c1c(Cl)cccc1Cl (stereo not given)	–
> 10 µM	CC(C)CN(c1ccc(-c2ccc(C(=O)NC3CC3)cc2)cc1)S(=O)(=O)c1c(Cl)cccc1Cl	–
6.5 µM	CC(C)CN(c1ccc(-c2ccc(CCC(=O)O)cc2)cc1)S(=O)(=O)c1c(Cl)cccc1Cl	–
> 10 µM	CC(C)CN(c1ccc(-c2ccc(OC(C)(C)C(=O)O)c(F)c2)cc1)S(=O)(=O)c1c(Cl)cccc1Cl	–
> 10 µM	CC(C)CN(c1ccc(-c2ccc(OCC(=O)O)c(F)c2)cc1)S(=O)(=O)C1CCCCC1	–
0.89 µM	CC(C)CN(c1ccc(-c2ccc(OCC(=O)O)cc2)cc1)S(=O)(=O)c1c(Cl)cccc1Cl	–
> 10 µM	CC(C)CN(c1ccc(-c2cccc(C(=O)O)c2)cc1)S(=O)(=O)c1c(Cl)cccc1Cl	–
–	CC(C)CN(c1ccc(-c2ccc(OCC(=O)O)c(F)c2)cc1)S(=O)(=O)c1c(Cl)cccc1Cl	Activity [1]: Non-Toxic; Activity [2]: Non-Toxic; Activity [3]: Non-Toxic; Activity [4]: Non-Toxic; Activity [5]: Non-Toxic; Activity [6]: Non-Toxic; Activity [7]: Non-Toxic; Activity [8]: Non-Toxic; Activity [9]: Non-Toxic; Activity [10]: Non-Toxic; Activity [11]: Non-Toxic; Activity [12]: Non-Toxic; Activity [13]: Non-Toxic; Activity [14]: Non-Toxic; Activity [15]: Non-Toxic; Activity [16]: Non-Toxic
> 10 µM	Cc1ccc(S(=O)(=O)N(CC(C)C)c2ccc(-c3ccc(OCC(=O)O)c(F)c3)cc2)cc1	–
> 10 µM	Cc1ccc(S(=O)(=O)N(CC(C)C)c2ccc(-c3ccc(CCC(=O)O)cc3)cc2)cc1	–
> 10 µM	CC(C)CN(c1ccc(COc2cccc(CC(=O)O)c2)cc1)S(=O)(=O)c1c(Cl)cccc1Cl	–
> 10 µM	CC(C)CN(c1ccc(-c2cccc(CC(=O)O)c2)cc1)S(=O)(=O)c1c(Cl)cccc1Cl	–
> 10 µM	O=C(O)c1cccc(-c2ccc(N(CC3CC3)S(=O)(=O)c3c(Cl)cccc3Cl)cc2)c1	–
> 10 µM	CC(C)CN(c1ccc(-c2ccc(C3(C(=O)O)CC3)cc2)cc1)S(=O)(=O)c1c(Cl)cccc1Cl	–
> 10 µM	CC(C)CN(c1ccc(-c2ccc(C(N)=O)cc2)cc1)S(=O)(=O)c1c(Cl)cccc1Cl	–
> 10 µM	CC(C)CN(c1ccc(COc2ccc3c(CC(=O)O)coc3c2)cc1)S(=O)(=O)c1c(Cl)cccc1Cl	–
> 10 µM	Cc1ccc(S(=O)(=O)N(CC(C)C)c2ccc(-c3ccc(C(=O)O)cc3)cc2)cc1	–

— ChEMBL document CHEMBL5625171, “Design, synthesis, and biological studies of novel sulfonamide derivatives as farnesoid X receptor agonists” (Eur J Med Chem, 2023)
